Measurements from the NIST ThermoML archive (doi:10.1016/j.jct.2019.03.032).
± gives the expanded uncertainty stated by the source.

Conditions: Metastable liquid, Gas chromatography

| Compound | vapor or sublimation pressure (298.15 K) | vapor or sublimation pressure (310 K) | vapor or sublimation pressure (320 K) | vapor or sublimation pressure (330 K) | vapor or sublimation pressure (340 K) | vapor or sublimation pressure (350 K) | vapor or sublimation pressure (360 K) | vapor or sublimation pressure (370 K) | vapor or sublimation pressure (380 K) | vapor or sublimation pressure (390 K) | vapor or sublimation pressure (400 K) | vapor or sublimation pressure (410 K) | vapor or sublimation pressure (420 K) | vapor or sublimation pressure (430 K) | vapor or sublimation pressure (440 K) | vapor or sublimation pressure (450 K) | vapor or sublimation pressure (460 K) | vapor or sublimation pressure (470 K) | vapor or sublimation pressure (480 K) | vapor or sublimation pressure (490 K) | other results |
| --- | --- | --- | --- | --- | --- | --- | --- | --- | --- | --- | --- | --- | --- | --- | --- | --- | --- | --- | --- | --- | --- |
| CC(C)=CCC/C(C)=C/CC/C(C)=C/CC/C=C(\C)CC/C=C(\C)CCC=C(C)C | 3.7e-10 kPa | 3.1e-09 kPa | 1.6e-08 kPa | 7.5e-08 kPa | 3.1e-07 ± 1.4e-07 kPa | 1.2e-06 kPa | 3.9e-06 ± 1.6e-06 kPa | 1.2e-05 ± 4e-06 kPa | 3.5e-05 ± 1.2e-05 kPa | 9.3e-05 ± 7e-06 kPa | 0.00023 ± 6e-05 kPa | 0.00055 ± 0.00015 kPa | 0.0012 ± 0.0002 kPa | 0.0026 ± 0.0004 kPa | 0.0053 ± 0.0009 kPa | 0.01 ± 0.002 kPa | 0.019 ± 0.002 kPa | 0.035 ± 0.005 kPa | 0.061 ± 0.007 kPa | 0.1 ± 0.011 kPa | vapor or sublimation pressure (500 K): 0.17 ± 0.017 kPa; vapor or sublimation pressure (510 K): 0.27 ± 0.025 kPa; vapor or sublimation pressure (520 K): 0.42 ± 0.036 kPa; vapor or sublimation pressure (530 K): 0.63 ± 0.052 kPa; vapor or sublimation pressure (540 K): 0.94 ± 0.073 kPa; vapor or sublimation pressure (550 K): 1.4 ± 0.11 kPa; vapor or sublimation pressure (560 K): 2 ± 0.15 kPa; vapor or sublimation pressure (570 K): 2.8 ± 0.22 kPa; vapor or sublimation pressure (580 K): 3.8 ± 0.29 kPa; vapor or sublimation pressure (590 K): 5.1 ± 0.4 kPa; vapor or sublimation pressure (600 K): 6.9 ± 0.54 kPa; vapor or sublimation pressure (709.1 K): 101.33 ± 10 kPa |
| CC(C)CCCC(C)CCCC(C)CCCCC(C)CCCC(C)CCCC(C)C (centres undefined) [2,6,10,15,19,23-hexamethyltetracosane] | 1.5e-09 kPa | 1.2e-08 kPa | 5.9e-08 kPa | 2.6e-07 kPa | 1e-06 ± 4e-07 kPa | 3.5e-06 ± 1.4e-06 kPa | 1.1e-05 ± 4e-06 kPa | 3.4e-05 ± 1.2e-05 kPa | 9.2e-05 ± 7e-06 kPa | 0.00024 ± 6e-05 kPa | 0.00057 ± 0.00015 kPa | 0.0013 ± 0.0002 kPa | 0.0028 ± 0.0006 kPa | 0.0059 ± 0.0011 kPa | 0.012 ± 0.002 kPa | 0.022 ± 0.004 kPa | 0.04 ± 0.005 kPa | 0.071 ± 0.009 kPa | 0.121 ± 0.015 kPa | 0.2 ± 0.021 kPa | vapor or sublimation pressure (500 K): 0.32 ± 0.032 kPa; vapor or sublimation pressure (510 K): 0.51 ± 0.046 kPa; vapor or sublimation pressure (520 K): 0.78 ± 0.065 kPa; vapor or sublimation pressure (530 K): 1.2 ± 0.095 kPa; vapor or sublimation pressure (540 K): 1.7 ± 0.13 kPa; vapor or sublimation pressure (550 K): 2.5 ± 0.19 kPa; vapor or sublimation pressure (560 K): 3.5 ± 0.27 kPa; vapor or sublimation pressure (570 K): 4.8 ± 0.37 kPa; vapor or sublimation pressure (580 K): 6.6 ± 0.51 kPa; vapor or sublimation pressure (590 K): 8.9 ± 0.69 kPa; vapor or sublimation pressure (600 K): 12 ± 0.93 kPa; vapor or sublimation pressure (686.4 K): 101.33 ± 10 kPa |
